Experimental data published in PMC7118123, “Evidence for functional selectivity in TUDC- and norUDCA-induced signal transduction via α5β1 integrin towards choleresis” (Scientific Reports, 2020).

Biological target: T1, α5β1 integrin (Homo sapiens, UniProt P05556+P08648)
T1 construct: gene ITGA5; soluble human α5β1-integrin (R&D); with integrin α5 (ITGA5, P08648)
Experiment: competitive ELISA-like solid-phase binding assay against immobilized fibronectin

Row | SMILES | IC50
1 | C[C@H](CCC(=O)NCCS(=O)(=O)O)[C@H]1CC[C@H]2[C@@H]3[C@@H](O)C[C@@H]4C[C@H](O)CC[C@]4(C)[C@H]3CC[C@]12C [TUDC] | 4.01 mM
2 | C[C@H](CC(=O)O)[C@H]1CC[C@H]2[C@@H]3C(O)C[C@@H]4C[C@H](O)CC[C@]4(C)[C@H]3CC[C@]12C (some centres unmarked) [norUDCA] | 3.93 mM
